{"source": "patent US20070178532A1", "about": "(priority 2003, published 2007)", "key": {"[1]": {"test_system": "tetramer-positive T cells from PBMC of HAM/TSP patients", "assay": "CD27 and CD45RA expression in HLA-GFP-acquiring tetramer-positive T cells after peptide presentation by HmyA2GFP cells", "type": "cell-based, human"}, "[2]": {"test_system": "tetramer-positive T cells from PBMC of HAM/TSP patients", "assay": "intracellular perforin staining of tetramer-positive T cells (FACS)", "type": "cell-based, human", "description": "The above-described phenotypically defined T cell populations were further characterized with respect to perforin expression and cytolytic activity. For intracellular perforin staining, cells were fixed and permeabilization with Cytofix/CytoPerm kit (BD Pharmingen), and stained with monoclonal antibody specific for perforin (BD Pharmingen). The cells were subjected to further FACS analysis and the resulting data was analyzed with Cellquest software (Becton Dickinson) to obtain the mean fluorescence intensity (MFI) for the cell populations."}, "PBMCs": {"test_system": "PBMCs", "assay": "peptide loaded HLA-A*201 tetramer analysis of PBMCs (FACS)", "details": "PBMC of HAM/TSP patient #5"}, "CD8+ T cells in PBMCs": {"test_system": "CD8+ T cells in PBMCs", "assay": "HLA-GFP acquisition by CD8+ T cells in PBMCs mixed with peptide-pulsed HmyA2GFP cells (FACS)", "details": "PBMC of HAM/TSP patient #5"}, "[3]": {"details": "CMV tetramer-positive cells, After contact with HmyA2GFP cells (1 hour)"}, "[4]": {"details": "HLA-GFP-acquiring tetramer-positive cells after stimulation with peptide-pulsed HmyA2GFP cells"}}}
{"sequence": "NLVPMVATV [CMV pp65]", "values": [{"measurement": "% CD27+ CD4SRA−", "setting": "[1]; [3]", "result": 2.51, "unit": "%"}, {"measurement": "% CD27+ CD45RA+", "setting": "[1]; [3]", "result": 3.05, "unit": "%"}, {"measurement": "% CD27− CD45RA+", "setting": "[1]; [3]", "result": 42.625, "unit": "%"}, {"measurement": "% CD27− CD45RA−", "setting": "[1]; [3]", "result": 51.813, "unit": "%"}, {"measurement": "change of CD27+CD45RA− (memory) subset", "setting": "[1]; [4]", "result": "concomitant decrease"}, {"measurement": "change of CD27-CD45+ (effector) subset", "setting": "[1]; [4]", "result": "no significant change"}, {"measurement": "change of CD27-CD45RA− (effector/memory) subset", "setting": "[1]; [4]", "result": "significant increase"}, {"measurement": "Perforin Expression Levels (in MFI)", "setting": "[2]; HLA acquiring CMV tetramer-positive cells", "result": 9.543, "unit": "MFI"}, {"measurement": "change in the amount of perforin in virus-specific T cells after peptide stimulation", "setting": "[2]; after stimulation with peptide-pulsed HmyA2GFP cells", "result": "significant decrease"}, {"measurement": "peptide-specific T cells in the PBMCs by tetramer", "setting": "PBMCs", "result": 6.57, "unit": "%"}, {"measurement": "frequency of peptide-specific T cells in the PBMC population by the inventive method", "setting": "CD8+ T cells in PBMCs", "result": 6.34, "unit": "%"}]}
